# Measurements taken from patent publication US20220323761A1, “METHOD FOR INDUCING HIBERNATION-LIKE STATE AND DEVICE SAME” (University of Tsukuba, priority 2019, published 2022).
# Assays:
# adenosine A1 receptor = molecular target: T1, adenosine A1 receptor (Mus musculus, UniProt Q60612); assay: Metabolic state induced by IP CHA in wild-type mice; format: in vivo
# T1 construct: endogenous in cells; host or cells: whole mouse, in vivo (intraperitoneal CHA)
# T1 sequence (Q60612 1-326): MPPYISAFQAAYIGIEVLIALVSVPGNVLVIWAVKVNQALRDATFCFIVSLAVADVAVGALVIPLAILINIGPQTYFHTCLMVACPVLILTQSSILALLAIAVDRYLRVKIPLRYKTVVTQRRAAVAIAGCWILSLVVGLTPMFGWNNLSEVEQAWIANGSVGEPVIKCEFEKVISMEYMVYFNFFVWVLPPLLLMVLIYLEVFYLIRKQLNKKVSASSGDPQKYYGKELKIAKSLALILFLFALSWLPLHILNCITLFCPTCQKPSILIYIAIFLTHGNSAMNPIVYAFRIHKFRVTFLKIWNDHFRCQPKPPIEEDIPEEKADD
# Text: In order to record the core body temperature, oxygen consumption amount, EEG, ECG, and respiratory patterns, each animal was housed in a temperature controlled chamber (HC-100, Shin Factory or LP-400P-AR, Nippon Medical & Chemical Instruments Co., Ltd.). In order to continuously record the TB (intraperitoneal temperature), a telemetry temperature sensor (TA11TA-F10, DSI) was implanted into the animal's abdominal cavity under general inhalation anesthesia at least 7 days prior to the recording. The VO 2 and carbon dioxide discharge rate (VCO2) of the animal were continuously recorded using a respiratory gas analyzer (ARCO-2000 mass spectrometer, ARCO System). The respiratory quotient was calculated from the ratio of VCO2/VO2.
# The Dreadd agonist CNO (clozapine N-oxide, Abcam, ab141704) was dissolved in physiological saline at a dose of 100 μg/mL, and the solution was frozen at −20° C. The CNO solution was thawed on site and then administered to each mouse intraperitoneally at a dose of 1 mg/kg. The adenosineAl receptor agonist CHA (N^6-cyclohexyl adenosine, Sigma-Aldrich, C9901) was dissolved in physiological saline at a concentration of 250 μg/mL, and the solution was administered intraperitoneally to each mouse at a dose of 2.5 mg/kg.
# [1] = administered centrally; cited from earlier work
Molecule,"induction of hypothermic/hypometabolic state (adenosine A1 receptor; IP 2.5 mg/kg, wild-type mice)","reaction to low TA through behavior (posture and shivering) or increase in VO2 (adenosine A1 receptor; TA 12° C., IP 2.5 mg/kg)",TB and VO2 at lowered TA (adenosine A1 receptor; TA set to 12° C.),TB compared with QIH (adenosine A1 receptor; at 20°),heart rate and blood pressure [1],sympathetic nerve outflow [1]
"OC[C@H]1O[C@@H](n2cnc3c(NC4CCCCC4)ncnc32)[C@H](O)[C@@H]1O [CHA, N^6-cyclohexyl adenosine]",effectively induced a hypothermic/hypometabolic state,did not react,further reduced,tends to be higher,,
"pyroglutamylated RFamide peptide (QDEGSEATGFLPAAGEKTSGPLGNLAEELNGYSRKKGGFSFRF; QRF-amide; UniProt P83859 91-133, looked up) [Qrfp, hypothalamic neuropeptide, endogenous ligand of the orphan G-protein-coupled receptor hGPR103]",,,,,increase,increases
